# Source: patent US7273880B2, “Selective NPY (Y5) antagonists” (H. Lunbeck A/S, priority 1999, dated 2007)
# Where two headings read alike, the source gives them in different places.
# What was measured:
# [1] = molecular target: T1, human Y5 receptor (hNPY-5) (Homo sapiens, UniProt Q15761); assay: Radioligand binding to membranes, cloned human Y5 receptor
# T1 construct: expressed in transfected cells; host or cells: mouse fibroblast LM(tk-) cells, e.g. L-hY5-7 (ATCC CRL-11995)
# T1 sequence (Q15761 1-445): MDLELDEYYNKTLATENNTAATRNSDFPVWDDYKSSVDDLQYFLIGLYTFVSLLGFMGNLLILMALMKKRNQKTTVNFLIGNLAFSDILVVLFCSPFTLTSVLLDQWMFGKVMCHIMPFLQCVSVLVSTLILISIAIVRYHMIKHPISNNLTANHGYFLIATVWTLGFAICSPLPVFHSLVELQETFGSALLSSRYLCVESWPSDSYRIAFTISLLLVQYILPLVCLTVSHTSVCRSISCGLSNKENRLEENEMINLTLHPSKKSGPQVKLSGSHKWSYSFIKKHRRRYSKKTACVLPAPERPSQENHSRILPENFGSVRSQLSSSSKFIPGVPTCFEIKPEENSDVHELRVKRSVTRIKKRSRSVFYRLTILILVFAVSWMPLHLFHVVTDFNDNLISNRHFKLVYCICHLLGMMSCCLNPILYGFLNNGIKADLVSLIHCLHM
# Summary of the method: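 Competition binding on membranes from stably transfected 293 or LM(tk-) cells, with 0.08 nM ¹²⁵I-PYY in pH 7.4 HEPES buffer plus 0.1% BSA, 120 min at 30 °C, filtration and counting. Nonspecific binding defined by 300 nM human NPY, or 100 nM human PP for Y4; nonlinear regression.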
# [2] = molecular target: hNPY-1,2,4 (human Y1, Y2, Y4 receptors); assay: Radioligand binding to membranes, cloned human Y1, Y2 and Y4 receptors; conditions: one bound given for all three
# Experimental: Binding of the compounds of the present invention to human Y1, Y2, Y4, and Y5 receptors was evaluated using stably transfected 293 or LM(tk-) cells as described above. Stably transfected cell lines which may be used for binding assays include, for example, for the human Y1 receptor, 293-hY1-5 (deposited Jun. 4, 1996, under ATCC Accession No. CRL-12121), for the human Y2 receptor, 293-hY2-10 (deposited Jan. 27, 1994, under ATCC Accession No. CRL-11537), for the human Y4 receptor, L-hY4-3 (deposited Jan. 11, 1995, under ATCC Accession No. CRL-11779), and for human Y5 receptor, L-hY5-7 (deposited Nov. 15, 1995, under ATCC Accession No. CRL-11995). These cell lines were deposited with the American Type Culture Collection (ATCC), 10801 University Blvd., Manassas, Va. 20110-2209, U.S.A. under the provisions of the Budapest Treaty for the International Recognition of the Deposit of Microorganisms for the Purposes of Patent Procedure.
# Membranes were harvested from COS-7 cells 48 hours after transient transfection. Adherent cells were washed twice in ice-cold phosphate buffered saline (138 mM NaCl, 8.1 mM Na2HPO4, 2.5 mM KCl, 1.2 mM KH2PO4, 0.9 mM CaCl2, 0.5 mM MgCl2, pH 7.4) and lysed by sonication in ice-cold sonication buffer (20 mM Tris-HCl, 5 mM EDTA, pH 7.7). Large particles and debris were cleared by low speed centrifugation (200×g, 5 min, 4° C.). Membranes were collected from the supernatant fraction by centrifugation (32,000×g, 18 min, 4° C.), washed with ice-cold hypotonic buffer, and collected again by centrifugation (32,000×g, 18 min, 4° C.). The final membrane pellet was resuspended by sonication into a small volume of ice-cold binding buffer (˜1 ml for every 5 plates: 10 mM NaCl, 20 mM HEPES, 0.22 mM KH2PO4, 1.26 mM CaCl2, 0.81 mM MgSO4, pH 7.4). Protein concentration was measured by the Bradford method (Bradford, 1976) using Bio-Rad Reagent, with bovine serum albumin as a standard. Membranes were held on ice for up to one hour and used fresh, or flash-frozen and stored in liquid nitrogen.
# Membranes were prepared similarly from 293, LM(tk-), and NIH-3T3 cells. To prepare membranes from baculovirus infected cells, 2×10^7 Sf21 cells were grown in 150 mm tissue culture dishes and infected with a high-titer stock of hY5BB3. Cells were incubated for 2-4 days at 27° C., no CO2 before harvesting and membrane preparation as described above.
# Membrane suspensions were diluted in binding buffer supplemented with 0.1% bovine serum albumin to yield an optimal membrane protein concentration so that ^125I-PYY (or alternative radioligand such as ^125I-NPY, ^125I-PYY3-36, or ^125I-[Leu^31Pro^34]PYY) bound by membranes in the assay was less than 10% of ^125I-PYY (or alternative radioligand) delivered to the sample (100,000 dpm/sample=0.08 nM for competition binding assays). ^125I-PYY (or alternative radioligand) and peptide competitors were also diluted to desired concentrations in supplemented binding buffer. Individual samples were then prepared in 96-well polypropylene microtiter plates by mixing 125I-PYY (25 μL) (or alternative radioligand), competing peptides or supplemented binding buffer (25 μL), and finally, membrane suspensions (200 μL). Samples were incubated in a 30° C. water bath with constant shaking for 120 min. Incubations were terminated by filtration over Whatman GF/C filters (pre-coated with 1% polyethyleneimine and air-dried before use), followed by washing with 5 mL of ice-cold binding buffer. Filter-trapped membranes were impregnated with MeltiLex solid scintillant (Wallac, Turku, Finland) and counted for ^125I in a Wallac Beta-Plate Reader. Alternatively, incubations were carried out in GF/C filter plates (pre-coated with 1% polyethyleneimine and air-dried before use), followed by vacuum filtration and three washes of 300 μL of ice-cold binding buffer. 50 μL of UltimaGold (Packard) scintillant were added and counted for ^125I in a Wallac MicroBeta Trilux. […]
# [3] = molecular target: T2, human Y5 receptor (h NPY-5) (Homo sapiens, UniProt Q15761); assay: Functional assay: radioimmunoassay of cAMP; assay type: cell-based; conditions: functional antagonism, forskolin-stimulated cAMP, cells stably transfected with human Y5
# T2 construct: expressed in transfected cells; host or cells: mouse fibroblast LM(tk-) cells, e.g. L-hY5-7 (ATCC CRL-11995)
# T2 sequence (Q15761 1-445): T1 sequence (Q15761 1-445)
# Experimental: LM(tk-) cells stably transfected with the human Y5 receptor were routinely converted from an adherent monolayer to a viable suspension. Adherent cells were harvested with trypsin at the point of confluence, resuspended in a minimal volume of complete DMEM for a cell count, and further diluted to a concentration of 10^6 cells/ml in suspension media (10% bovine calf serum, 10% 10× Medium 199 (Gibco), 9 mM NaHCO3, 25 mM glucose, 2 mM L-glutamine, 100 units/ml penicillin/100 μg/ml streptomycin, and 0.05% methyl cellulose). The cell suspension was maintained in a shaking incubator at 37° C., 5% CO2 for 24 hours. Membranes harvested from cells grown in this manner may be stored as large, uniform batches in liquid nitrogen. Alternatively, cells may be returned to adherent cell culture in complete DMEM by distribution into 96-well microtiter plates coated with poly-D-lysine (0.01 mg/ml) followed by incubation at 37° C., 5% CO2 for 24 hours. Cells prepared in this manner yielded a robust and reliable NPY-dependent response in cAMP radio-immunoassays as further described hereinbelow.
# Stably transfected cells were seeded into 96-well microtiter plates and cultured until confluent. To reduce the potential for receptor desensitization, the serum component of the media was reduced to 1.5% for 4 to 16 hours before the assay. Cells were washed in Hank's buffered saline, or HBS (150 mM NaCl, 20 mM HEPES, 1 mM CaCl2, 5 mM KCl, 1 mM MgCl2, and 10 mM glucose) supplemented with 0.1% bovine serum albumin plus 5 mM theophylline and pre-equilibrated in the same solution for 20 min at 37° C. in 5% CO2. Cells were then incubated 5 min with 10 μM forskolin and various concentrations of receptor-selective ligands. The assay was terminated by the removal of HBS and acidification of the cells with 100 mM HCl. Intracellular cAMP was extracted and quantified with a modified version of a magnetic bead-based radioimmunoassay (Advanced Magnetics, Cambridge, Mass.). The final antigen/antibody complex was separated from free ^125I-cAMP by vacuum filtration through a PVDF filter in a microtiter plate (Millipore, Bedford, Mass.). Filters were punched and counted for ^125I in a Packard gamma counter. Binding data were analyzed using nonlinear regression and statistical techniques available in the GraphPAD Prism package (San Diego, Calif.).
# [4] = cloned human NPY Y5 receptor, radioligand competition binding, Tables 1-3, read-out: Ki, nM hNPY-5
# [5] = binding Ki as repeated in Table 4, read-out: Ki (h NPY-5)
Structure (SMILES),"Ki [1, 4] [nM]",Ki [2] [nM],melting point [°C],"Ki [1, 5] [nM]",Kb [3] [nM]
"Cn1cnc(S(=O)(=O)NCCCCCNc2nc3c(s2)CCCc2ccc(F)cc2-3)c1 [Example 23, 1-Aza-9-fluoro-4,5-dihydro-2-(5-(1-methylimidazol-4-yl)sulfonylamino)pentylamino-3-thia-benzo[e]azulene]",15.5,> 10000,50 to 53,,
"CCN(CC)S(=O)(=O)N[C@H]1CC[C@H](Nc2nc3c(s2)CCCc2ccc(F)cc2-3)CC1 [Example 35, trans-1-Aza-9-fluoro-4,5-dihydro-2-(4-diethylamino-sulfonylamino)cyclohexylamino-3-thia-benzo[e]azulene]",6.5,> 10000,172 to 174,,
"O=S(=O)(CC(F)(F)F)N[C@H]1CC[C@H](Nc2nc3c(s2)CCCc2ccc(F)cc2-3)CC1 [Example 38, trans-1-Aza-9-fluoro-4,5-dihydro-2-(4-(2,2,2-trifluoro-ethyl)sulfonylamino)cyclohexylamino-3-thia-benzo [e]azulene]",15.8,> 10000,89 to 91,,
"CS(=O)(=O)NCCCCC(=O)Nc1nc2c(s1)CCCc1ccc(F)cc1-2 [Example 45, N1-(9-fluoro-5,6-dihydro-4H-benzo[6,7]cyclohepta-[d][1,3]thiazol-2-yl)-5-[(methylsulfonyl)amino]-pentanamide]",65,> 10000,145 to 147,,
"NS(=O)(=O)NC[C@H]1CC[C@H](Nc2nc3c(s2)CCOc2ccccc2-3)CC1 [Example 46, trans-N2-(4-Aminosulfonylaminomethyl)cyclohexyl-4,5-dihydro-benzo[2,3]oxepino[4,5-d][1,3]thiazol-2-amine]",34,> 10000,170 to 173,,
"CS(=O)(=O)NC[C@H]1CC[C@H](Nc2nc3c(s2)CCOc2ccccc2-3)CC1 [Example 47, trans-N2-(4-Methylsulfonylaminomethyl)cyclohexyl-4,5-dihydro-benzo[2,3]oxepino[4,5-d][1,3]thiazol-2-amine]",22,> 10000,67 to 69,,
"COCC(=O)NC[C@H]1CC[C@H](Nc2nc3c(s2)CCCc2ccc(F)cc2-3)CC1 [Example 80, N1-({4-[(9-fluoro-5,6-dihydro-4H-benzo[6,7]-cyclohepta-[d][1,3]thiazol-2-yl)amino]cyclohexyl}-methyl)-2-methoxyacetamide]",33,,,32.9,39.8

# Now from value to compound:
"Ki [1, 4] [nM]",Ki [2] [nM],melting point [°C],"Ki [1, 5] [nM]",Kb [3] [nM],Structure (SMILES)
15.4,> 10000,186 to 188,,,"COC[C@@H]1CCCN1S(=O)(=O)c1ccc(Nc2nc3c(s2)CCCc2ccc(F)cc2-3)cc1 [Example 9, 1-Aza-9-fluoro-4,5-dihydro-2-(4-((2(S)-methoxy-methyl)-pyrrolidine-1-yl)sulfonyl)phenylamino-3-thia-benzo[e]azulene]"
3.2,,,3.2,2.51,"COc1ccc(C)cc1S(=O)(=O)NCCCCCNc1nc2c(s1)CCCc1ccc(F)cc1-2 [Example 15, 1-Aza-9-fluoro-4,5-dihydro-2-(5-(2-methoxy-5-methyl-phenyl)sulfonylamino)pentylamino-3-thia-benzo[e]-azulene]"
5,> 10000,152 to 154,,,"O=S(=O)(NCCCCCNc1nc2c(s1)CCCc1ccc(F)cc1-2)c1cccs1 [Example 19, 1-Aza-9-fluoro-4,5-dihydro-2-(5-(2-thienyl)-sulfonylamino)-pentylamino-3-thia-benzo[e]azulene]"
34,,179 to 181,33.5,63.1,"CS(=O)(=O)N[C@H]1CC[C@H](Nc2nc3c(s2)CCCc2ccc(F)cc2-3)CC1 [Example 34, trans-1-Aza-9-fluoro-4,5-dihydro-2-(4-methyl-sulfonylamino)-cyclohexylamino-3-thia-benzo[e]azulene]"
7.4,> 10000,230 to 231,,,"O=S(=O)(N[C@H]1CC[C@H](Nc2nc3c(s2)CCCc2ccc(F)cc2-3)CC1)c1cccs1 [Example 37, trans-1-Aza-9-fluoro-4,5-dihydro-2-(4-(2-thienyl)-sulfonyl-amino)cyclohexylamino-3-thia-benzo[e]azulene]"
20,,,20.1,12.6,"O=C1OCCN1C[C@H]1CC[C@H](Nc2nc3c(s2)CCCc2ccc(F)cc2-3)CC1 [Example 79, 3-({4-[(9-fluoro-5,6-dihydro-4H-benzo[6,7]cyclohepta-[d][1,3]thiazol-2-yl)amino]cyclohexyl}methyl)-1,3-oxazolan-2-one]"
